Reference: ChEMBL document CHEMBL5291721, “A preclinical secondary pharmacology resource illuminates target-adverse drug reaction associations of marketed drugs” (Nat Commun, 2023)
Each block holds one molecule with its values, some of them ahead of it.

Columns and labels:
[1] = target: T1, Muscarinic acetylcholine receptor M1 (Homo sapiens, UniProt P11229)
T1 sequence (P11229 whole entry): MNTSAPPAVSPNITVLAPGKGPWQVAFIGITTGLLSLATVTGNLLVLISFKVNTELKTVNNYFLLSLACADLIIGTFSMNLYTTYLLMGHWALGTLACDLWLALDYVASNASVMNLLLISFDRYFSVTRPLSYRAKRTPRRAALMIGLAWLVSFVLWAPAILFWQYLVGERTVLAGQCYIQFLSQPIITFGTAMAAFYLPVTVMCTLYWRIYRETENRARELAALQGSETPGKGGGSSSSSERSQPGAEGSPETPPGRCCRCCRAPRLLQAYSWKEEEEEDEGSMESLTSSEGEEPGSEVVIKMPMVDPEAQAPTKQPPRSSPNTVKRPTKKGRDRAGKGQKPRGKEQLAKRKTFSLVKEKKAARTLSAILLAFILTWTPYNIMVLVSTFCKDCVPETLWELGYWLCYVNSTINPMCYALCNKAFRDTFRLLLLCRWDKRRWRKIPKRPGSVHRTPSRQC

D(1A) dopamine receptor = D(1A) dopamine receptor (Homo sapiens, UniProt P21728)
[2] = target: 5-hydroxytryptamine receptor 2B (Homo sapiens, UniProt P41595)
[3] = target: Voltage-dependent N-type calcium channel subunit alpha-1B (Rattus norvegicus, UniProt Q02294); assay type: functional
[4] = target: T2, Alpha-2A adrenergic receptor (Homo sapiens, UniProt P08913)
T2 sequence (P08913 whole entry): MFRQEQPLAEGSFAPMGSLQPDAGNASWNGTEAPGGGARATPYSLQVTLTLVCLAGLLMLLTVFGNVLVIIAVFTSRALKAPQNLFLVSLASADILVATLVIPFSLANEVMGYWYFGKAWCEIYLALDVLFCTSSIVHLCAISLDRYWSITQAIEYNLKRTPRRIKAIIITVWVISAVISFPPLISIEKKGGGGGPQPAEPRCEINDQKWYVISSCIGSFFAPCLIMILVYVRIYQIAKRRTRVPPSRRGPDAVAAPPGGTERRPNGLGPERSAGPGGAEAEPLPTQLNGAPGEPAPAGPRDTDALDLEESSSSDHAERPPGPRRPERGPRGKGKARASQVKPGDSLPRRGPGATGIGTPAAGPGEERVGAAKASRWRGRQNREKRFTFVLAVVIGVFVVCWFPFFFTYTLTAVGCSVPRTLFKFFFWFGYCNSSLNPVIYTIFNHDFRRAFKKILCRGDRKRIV

[5] = target: Beta-3 adrenergic receptor (Homo sapiens, UniProt P13945)
[6] = target: T3, 5-hydroxytryptamine receptor 1A (Homo sapiens, UniProt P08908)
T3 sequence (P08908 whole entry): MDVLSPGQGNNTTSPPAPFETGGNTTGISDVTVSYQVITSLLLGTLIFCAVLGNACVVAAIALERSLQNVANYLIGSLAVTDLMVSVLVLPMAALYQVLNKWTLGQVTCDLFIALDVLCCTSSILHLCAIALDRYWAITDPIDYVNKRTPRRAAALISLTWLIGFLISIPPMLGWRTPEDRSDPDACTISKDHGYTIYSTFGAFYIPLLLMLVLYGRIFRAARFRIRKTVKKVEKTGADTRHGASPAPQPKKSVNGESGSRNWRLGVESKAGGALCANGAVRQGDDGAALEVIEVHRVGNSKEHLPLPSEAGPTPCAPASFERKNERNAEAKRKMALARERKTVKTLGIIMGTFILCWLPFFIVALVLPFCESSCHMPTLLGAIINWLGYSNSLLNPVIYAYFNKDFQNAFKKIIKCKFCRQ

[7] = target: T4, Muscarinic acetylcholine receptor M2 (Homo sapiens, UniProt P08172)
T4 sequence (P08172 whole entry): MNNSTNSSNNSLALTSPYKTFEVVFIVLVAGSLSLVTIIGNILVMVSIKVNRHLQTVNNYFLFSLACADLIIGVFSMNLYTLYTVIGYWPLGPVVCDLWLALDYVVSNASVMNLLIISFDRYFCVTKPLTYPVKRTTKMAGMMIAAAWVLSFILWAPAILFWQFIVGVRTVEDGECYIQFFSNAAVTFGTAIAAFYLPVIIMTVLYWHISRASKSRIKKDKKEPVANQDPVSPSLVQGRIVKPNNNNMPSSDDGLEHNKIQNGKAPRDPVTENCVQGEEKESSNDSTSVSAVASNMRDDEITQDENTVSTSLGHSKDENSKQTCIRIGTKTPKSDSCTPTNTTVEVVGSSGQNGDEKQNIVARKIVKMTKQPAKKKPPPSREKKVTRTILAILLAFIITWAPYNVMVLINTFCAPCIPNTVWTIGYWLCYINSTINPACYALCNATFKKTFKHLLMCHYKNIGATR

[8] = target: T5, Gamma-aminobutyric acid receptor subunit alpha-1/alpha-2/beta-2/gamma-2 (Homo sapiens, UniProt P14867+P18507+P47869+P47870); assay type: functional, cell-based
[9] = target: T5, Gamma-aminobutyric acid receptor subunit alpha-1/alpha-2/beta-2/gamma-2; assay type: functional, cell-based; remark: listed apart in the source
[10] = target: T6, Peroxisome proliferator-activated receptor gamma (Homo sapiens, UniProt P37231); assay type: functional
T6 sequence (P37231 whole entry): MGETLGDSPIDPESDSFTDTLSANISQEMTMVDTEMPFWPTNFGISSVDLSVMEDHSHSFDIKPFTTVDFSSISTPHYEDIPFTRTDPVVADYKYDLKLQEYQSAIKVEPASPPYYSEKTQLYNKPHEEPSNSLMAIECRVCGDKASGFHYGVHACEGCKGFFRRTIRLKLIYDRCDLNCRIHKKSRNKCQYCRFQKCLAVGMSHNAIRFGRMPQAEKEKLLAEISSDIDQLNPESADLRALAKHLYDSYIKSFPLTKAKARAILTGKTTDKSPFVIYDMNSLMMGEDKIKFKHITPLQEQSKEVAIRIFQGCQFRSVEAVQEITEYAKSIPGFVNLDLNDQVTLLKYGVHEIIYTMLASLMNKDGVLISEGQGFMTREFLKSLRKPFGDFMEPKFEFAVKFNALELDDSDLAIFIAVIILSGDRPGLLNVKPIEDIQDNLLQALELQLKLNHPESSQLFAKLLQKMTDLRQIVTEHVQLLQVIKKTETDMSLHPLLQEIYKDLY

Histamine H1 receptor [11] = target: T7, Histamine H1 receptor (Homo sapiens, UniProt P35367); assay type: functional, cell-based
Histamine H1 receptor [12] = target: T7, Histamine H1 receptor; assay type: functional, cell-based; remark: listed apart in the source
Note: assay procedure not described here.

Voltage-dependent N-type calcium channel subunit alpha-1B, sequence (Q02294 whole entry): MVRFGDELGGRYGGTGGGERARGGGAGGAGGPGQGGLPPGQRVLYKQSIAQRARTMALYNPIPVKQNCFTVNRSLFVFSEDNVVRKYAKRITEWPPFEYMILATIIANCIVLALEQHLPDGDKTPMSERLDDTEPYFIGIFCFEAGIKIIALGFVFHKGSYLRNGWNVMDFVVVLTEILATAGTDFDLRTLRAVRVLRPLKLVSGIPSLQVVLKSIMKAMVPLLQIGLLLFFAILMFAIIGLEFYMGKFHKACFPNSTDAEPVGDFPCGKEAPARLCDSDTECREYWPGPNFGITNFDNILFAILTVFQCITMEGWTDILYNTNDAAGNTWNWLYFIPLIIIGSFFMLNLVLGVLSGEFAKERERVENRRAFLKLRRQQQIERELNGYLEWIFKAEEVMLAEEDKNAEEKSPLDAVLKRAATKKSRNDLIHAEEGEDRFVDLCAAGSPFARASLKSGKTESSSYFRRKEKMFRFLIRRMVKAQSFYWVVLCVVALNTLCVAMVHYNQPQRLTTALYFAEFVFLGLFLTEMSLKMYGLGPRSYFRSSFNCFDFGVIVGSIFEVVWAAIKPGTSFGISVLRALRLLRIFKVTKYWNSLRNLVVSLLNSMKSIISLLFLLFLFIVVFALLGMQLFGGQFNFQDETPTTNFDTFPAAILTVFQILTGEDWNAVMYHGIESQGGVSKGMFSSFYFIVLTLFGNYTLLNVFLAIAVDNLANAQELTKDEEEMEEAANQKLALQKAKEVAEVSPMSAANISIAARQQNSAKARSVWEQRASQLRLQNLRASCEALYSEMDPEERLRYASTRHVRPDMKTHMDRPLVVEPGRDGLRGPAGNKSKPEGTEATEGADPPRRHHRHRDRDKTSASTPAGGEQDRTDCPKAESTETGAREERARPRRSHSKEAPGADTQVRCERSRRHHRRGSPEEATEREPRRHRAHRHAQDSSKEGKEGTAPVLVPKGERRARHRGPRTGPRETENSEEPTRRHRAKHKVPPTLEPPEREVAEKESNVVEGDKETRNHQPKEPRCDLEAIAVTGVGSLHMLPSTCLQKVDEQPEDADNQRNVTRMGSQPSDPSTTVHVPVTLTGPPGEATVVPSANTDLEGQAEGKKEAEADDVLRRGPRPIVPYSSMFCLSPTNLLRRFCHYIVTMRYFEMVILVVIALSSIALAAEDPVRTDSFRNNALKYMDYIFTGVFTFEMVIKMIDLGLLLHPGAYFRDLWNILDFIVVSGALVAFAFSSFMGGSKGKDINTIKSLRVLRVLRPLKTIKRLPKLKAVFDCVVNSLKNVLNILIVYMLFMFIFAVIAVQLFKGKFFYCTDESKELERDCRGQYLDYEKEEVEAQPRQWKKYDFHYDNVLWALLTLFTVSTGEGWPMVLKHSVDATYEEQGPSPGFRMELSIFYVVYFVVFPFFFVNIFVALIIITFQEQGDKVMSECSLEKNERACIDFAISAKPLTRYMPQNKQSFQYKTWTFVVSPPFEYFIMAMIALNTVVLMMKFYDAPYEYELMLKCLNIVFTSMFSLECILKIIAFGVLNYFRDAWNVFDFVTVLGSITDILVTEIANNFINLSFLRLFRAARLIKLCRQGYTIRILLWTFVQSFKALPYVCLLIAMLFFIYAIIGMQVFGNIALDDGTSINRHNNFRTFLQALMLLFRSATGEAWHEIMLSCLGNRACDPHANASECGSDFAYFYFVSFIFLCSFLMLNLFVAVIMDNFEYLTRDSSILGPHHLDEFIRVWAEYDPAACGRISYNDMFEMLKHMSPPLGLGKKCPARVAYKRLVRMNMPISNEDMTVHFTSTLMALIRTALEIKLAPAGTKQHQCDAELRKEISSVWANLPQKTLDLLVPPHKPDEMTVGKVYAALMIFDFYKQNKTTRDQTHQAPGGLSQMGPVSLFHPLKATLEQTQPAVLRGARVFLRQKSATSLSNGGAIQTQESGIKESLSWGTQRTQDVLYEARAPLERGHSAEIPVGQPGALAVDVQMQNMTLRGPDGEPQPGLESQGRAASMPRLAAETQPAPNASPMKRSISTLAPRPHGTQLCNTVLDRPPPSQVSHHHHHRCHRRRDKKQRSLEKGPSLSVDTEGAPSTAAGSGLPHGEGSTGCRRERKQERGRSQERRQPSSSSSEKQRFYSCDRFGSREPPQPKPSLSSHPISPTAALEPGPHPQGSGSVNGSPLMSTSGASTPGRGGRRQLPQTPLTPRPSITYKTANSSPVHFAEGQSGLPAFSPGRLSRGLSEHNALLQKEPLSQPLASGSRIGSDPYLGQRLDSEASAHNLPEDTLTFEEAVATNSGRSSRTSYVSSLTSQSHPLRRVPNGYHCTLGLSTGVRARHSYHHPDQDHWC
D(1A) dopamine receptor, sequence (P21728 whole entry): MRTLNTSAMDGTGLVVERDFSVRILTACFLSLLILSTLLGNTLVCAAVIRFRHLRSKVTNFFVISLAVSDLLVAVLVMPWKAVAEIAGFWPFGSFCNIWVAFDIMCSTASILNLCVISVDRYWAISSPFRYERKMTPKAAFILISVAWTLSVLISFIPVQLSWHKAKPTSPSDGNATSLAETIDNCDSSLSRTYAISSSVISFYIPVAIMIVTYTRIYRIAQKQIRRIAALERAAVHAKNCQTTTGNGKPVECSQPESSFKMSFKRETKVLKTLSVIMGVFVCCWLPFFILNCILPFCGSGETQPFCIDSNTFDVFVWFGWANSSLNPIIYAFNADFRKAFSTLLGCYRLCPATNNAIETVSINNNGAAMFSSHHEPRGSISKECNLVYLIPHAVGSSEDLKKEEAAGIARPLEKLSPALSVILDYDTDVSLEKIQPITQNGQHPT
T7 sequence (P35367 whole entry): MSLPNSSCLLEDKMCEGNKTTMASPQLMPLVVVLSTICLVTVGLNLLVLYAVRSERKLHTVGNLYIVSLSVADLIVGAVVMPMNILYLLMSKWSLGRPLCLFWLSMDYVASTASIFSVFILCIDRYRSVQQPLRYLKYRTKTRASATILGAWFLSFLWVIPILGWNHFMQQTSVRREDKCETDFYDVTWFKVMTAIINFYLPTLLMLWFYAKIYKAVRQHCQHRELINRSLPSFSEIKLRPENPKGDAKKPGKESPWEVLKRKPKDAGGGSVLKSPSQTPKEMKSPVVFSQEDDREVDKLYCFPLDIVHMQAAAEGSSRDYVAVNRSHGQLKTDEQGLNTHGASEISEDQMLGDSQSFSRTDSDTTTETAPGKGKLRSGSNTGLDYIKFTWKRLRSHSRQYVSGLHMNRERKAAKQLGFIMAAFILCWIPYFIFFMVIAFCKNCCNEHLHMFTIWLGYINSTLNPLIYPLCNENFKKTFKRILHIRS
5-hydroxytryptamine receptor 2B, sequence (P41595 whole entry): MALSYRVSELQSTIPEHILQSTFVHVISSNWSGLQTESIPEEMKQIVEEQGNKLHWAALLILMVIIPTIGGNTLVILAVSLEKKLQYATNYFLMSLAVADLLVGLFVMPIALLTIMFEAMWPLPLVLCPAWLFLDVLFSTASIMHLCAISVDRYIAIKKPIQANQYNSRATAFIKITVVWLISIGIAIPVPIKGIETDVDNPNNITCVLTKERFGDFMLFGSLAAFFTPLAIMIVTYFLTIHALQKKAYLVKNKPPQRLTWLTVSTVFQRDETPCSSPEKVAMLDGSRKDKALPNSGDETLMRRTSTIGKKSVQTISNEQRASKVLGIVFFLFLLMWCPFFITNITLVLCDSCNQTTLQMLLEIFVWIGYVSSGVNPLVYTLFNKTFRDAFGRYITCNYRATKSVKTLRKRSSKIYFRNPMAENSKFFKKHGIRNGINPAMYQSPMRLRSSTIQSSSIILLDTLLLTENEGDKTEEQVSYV
Beta-3 adrenergic receptor, sequence (P13945 whole entry): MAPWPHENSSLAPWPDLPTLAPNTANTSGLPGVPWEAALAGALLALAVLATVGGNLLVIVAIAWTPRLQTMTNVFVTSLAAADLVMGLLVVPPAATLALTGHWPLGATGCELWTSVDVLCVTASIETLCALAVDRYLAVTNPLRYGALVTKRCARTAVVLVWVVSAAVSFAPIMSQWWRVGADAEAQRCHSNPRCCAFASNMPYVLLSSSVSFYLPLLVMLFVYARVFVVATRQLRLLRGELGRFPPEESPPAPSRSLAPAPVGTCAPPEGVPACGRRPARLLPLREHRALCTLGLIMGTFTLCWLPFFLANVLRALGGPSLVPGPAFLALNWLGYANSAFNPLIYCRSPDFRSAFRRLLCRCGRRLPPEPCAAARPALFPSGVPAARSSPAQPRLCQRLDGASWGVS

SMILES: C[C@@H](O)[C@H]1C(=O)N2C(C(=O)O)=C(S[C@@H]3CN[C@H](C(=O)Nc4cccc(C(=O)O)c4)C3)[C@H](C)[C@H]12
AC50 [1]: > 30 µM
AC50 (D(1A) dopamine receptor): > 30 µM

SMILES: CC(=O)OC1CN2CCC1CC2 (stereo not given) [ACECLIDINE]
AC50 (D(1A) dopamine receptor): > 30 µM

SMILES: N=C(N)NC(=O)c1nc(Cl)c(N)nc1N [AMILORIDE]
AC50 [2]: 5.63 µM
AC50 [3]: > 10 µM
AC50 [4]: > 10 µM
AC50 [5]: > 30 µM
AC50 [6]: > 10 µM
AC50 [7]: > 10 µM

SMILES: CC(=O)Nc1ccc(/C=N/NC(N)=S)cc1 [AMITHIOZONE]
AC50 [1]: > 30 µM
AC50 (D(1A) dopamine receptor): > 30 µM

SMILES: CC(C)(C)NCC(O)COc1ccccc1C#N (stereo not given) [BUNITROLOL]
AC50 [8]: > 30 µM
AC50 [9]: > 30 µM

AC50 [10]: > 30 µM
AC50 [8]: > 30 µM
AC50 (Histamine H1 receptor [11]): > 30 µM
AC50 (Histamine H1 receptor [12]): > 30 µM
SMILES: C[C@]12C=CC(=O)C=C1C(Cl)=C[C@@H]1[C@@H]2[C@@H](O)C[C@@]2(C)[C@H]1CC[C@]2(O)C(=O)CO [CLOPREDNOL]

SMILES: COc1cccc2c1C(=O)c1c(O)c3c(c(O)c1C2=O)C[C@@](O)(C(=O)CO)C[C@@H]3O[C@H]1C[C@H](N)[C@H](O)[C@H](C)O1 [DOXORUBICIN]
AC50 [10]: > 10 µM
AC50 [3]: > 10 µM
AC50 [4]: > 10 µM
AC50 [6]: > 10 µM

AC50 [2]: > 30 µM
SMILES: C[C@]12CCC(=O)C=C1[C@@H]1C[C@@H]1[C@H]1[C@@H]3[C@@H]4C[C@@H]4[C@@]4(CCC(=O)O4)[C@@]3(C)CC[C@@H]12 [DROSPIRENONE]

AC50 [10]: > 30 µM
SMILES: CC(C)(Oc1ccc(Cl)cc1)C(=O)OCCOC(=O)c1cccnc1 [ETOFIBRATE]

SMILES: CCn1c(=O)c2c(nc(/C=C/c3ccc(OC)c(OC)c3)n2C)n(CC)c1=O [ISTRADEFYLLINE]
AC50 (Histamine H1 receptor [11]): > 30 µM
AC50 (Histamine H1 receptor [12]): > 30 µM

SMILES: CSCC[C@H](N)C(=O)O [METHIONINE]
AC50 [1]: > 30 µM
AC50 (D(1A) dopamine receptor): > 30 µM

SMILES: COc1ccc(C(=O)c2ccccc2)c(O)c1 [OXYBENZONE]
AC50 [8]: > 30 µM
AC50 [9]: > 30 µM

SMILES: OC(CN1CCCCC1)c1cc(-c2ccccc2)on1 (stereo not given) [PERISOXAL]
AC50 [1]: 20.4 µM
AC50 (D(1A) dopamine receptor): > 30 µM

AC50 [3]: > 10 µM
AC50 [5]: > 30 µM
AC50 [6]: > 10 µM
AC50 [7]: > 10 µM
SMILES: C[C@]12C=CC(=O)C=C1CC[C@@H]1[C@@H]2[C@@H](O)C[C@@]2(C)[C@H]1CC[C@]2(O)C(=O)CO [PREDNISOLONE]

AC50 [7]: 0.265 µM
SMILES: CCC(=O)c1ccc2c(c1)N(CC(C)N(C)C)c1ccccc1S2 (stereo not given) [PROPIOMAZINE]

SMILES: Cc1ccc(O)c([C@H](CCN(C(C)C)C(C)C)c2ccccc2)c1 [TOLTERODINE]
AC50 [2]: > 10 µM
AC50 [3]: > 10 µM
AC50 [4]: > 10 µM
AC50 [5]: > 30 µM
AC50 [6]: > 10 µM

SMILES: Oc1cc(Cl)ccc1Oc1ccc(Cl)cc1Cl [TRICLOSAN]
AC50 [8]: > 30 µM
AC50 (Histamine H1 receptor [11]): > 30 µM
AC50 [9]: > 30 µM
AC50 (Histamine H1 receptor [12]): > 30 µM
